Source: the supplement of paper PMC4862054

Columns and labels:
Conditions in all cases: incubation time: 72 h
HDQ-P1 [1] = assay: normalised response (% of control), CellTiter-Glo; higher = more viable cells (100 = DMSO, 0 = benzethonium chloride kill control)
In short: (§1)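 A 20 µl suspension of breast cancer cells was seeded into each well of 384-well plates containing compound at 5 concentrations in 10-fold steps over a compound-specific 10,000-fold range. After 72 h incubation, CellTox Green fluorescence (485/520 nm) was read first, and CellTiter-Glo luminescence was read after 10 min at room temperature. Each plate was normalised against 0.1 % DMSO (100) and a positive kill control (0), and each value is the normalised signal at one concentration.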

BT-474 [2] = assay: as above
In short: as §1

Hs578T [3] = assay: as above
In short: as §1

CAL-85-1 [4] = assay: as above
In short: as §1

BT-549 [5] = assay: as above
In short: as §1

HCC1599 [6] = assay: as above
In short: as §1

MDA-MB-231 [7] = assay: as above
In short: as §1

MDA-MB-468 [8] = assay: as above
In short: as §1

HCC1937 [9] = assay: as above
In short: as §1

DU-4475 [10] = assay: as above
In short: as §1

MFM-223 [11] = assay: as above
In short: as §1

MDA-MB-453 [12] = assay: as above
In short: as §1

SK-BR-3 [13] = assay: as above
In short: as §1

MDA-MB-436 [14] = assay: as above
In short: as §1

MCF-10A = assay: as above
In short: as §1

CAL-148 [15] = assay: as above
In short: as §1

CAL-120 [16] = assay: as above
In short: as §1

HCC1143 [17] = assay: as above
In short: as §1

CAL-51 [18] = assay: as above
In short: as §1

HDQ-P1 [19] = assay: normalised viability (% of control), CellTiter-Blue; higher = more viable cells (100 = DMSO, 0 = benzethonium chloride kill control)
In short: (§2)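 Plates were quality-checked by Z'-factor and normalised to vehicle (100) and a positive kill control (0). The underlying assay incubated breast cancer cell lines for 72 h on 384-well plates with compound, then added 2.5 µl CellTiter-Blue for 2 h at 37 °C and read at 560/590 nm. The value is normalised viability at a single listed concentration of the series.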

BT-474 [20] = assay: as above
In short: as §2

Hs578T [21] = assay: as above
In short: as §2

CAL-85-1 [22] = assay: as above
In short: as §2

BT-549 [23] = assay: as above
In short: as §2

HCC1599 [24] = assay: as above
In short: as §2

MDA-MB-231 [25] = assay: as above
In short: as §2

MDA-MB-468 [26] = assay: as above
In short: as §2

HCC1937 [27] = assay: as above
In short: as §2

DU-4475 [28] = assay: as above
In short: as §2

MFM-223 [29] = assay: as above
In short: as §2

MDA-MB-453 [30] = assay: as above
In short: as §2

SK-BR-3 [31] = assay: as above
In short: as §2

MDA-MB-436 [32] = assay: as above
In short: as §2

CAL-148 [33] = assay: as above
In short: as §2

CAL-120 [34] = assay: as above
In short: as §2

HCC1143 [35] = assay: as above
In short: as §2

CAL-51 [36] = assay: as above
In short: as §2

Row | Structure (SMILES) | normalised response (HDQ-P1 [1]) | normalised response (BT-474 [2]) | normalised response (Hs578T [3]) | normalised response (CAL-85-1 [4]) | normalised response (BT-549 [5]) | normalised response (HCC1599 [6]) | normalised response (MDA-MB-231 [7]) | normalised response (MDA-MB-468 [8]) | normalised response (HCC1937 [9]) | normalised response (DU-4475 [10]) | normalised response (MFM-223 [11]) | normalised response (MDA-MB-453 [12]) | normalised response (SK-BR-3 [13]) | normalised response (MDA-MB-436 [14]) | normalised response (MCF-10A) | normalised response (CAL-148 [15]) | normalised response (CAL-120 [16]) | normalised response (HCC1143 [17]) | normalised response (CAL-51 [18]) | normalised viability (HDQ-P1 [19]) | normalised viability (BT-474 [20]) | normalised viability (Hs578T [21]) | normalised viability (CAL-85-1 [22]) | normalised viability (BT-549 [23]) | normalised viability (HCC1599 [24]) | normalised viability (MDA-MB-231 [25]) | normalised viability (MDA-MB-468 [26]) | normalised viability (HCC1937 [27]) | normalised viability (DU-4475 [28]) | normalised viability (MFM-223 [29]) | normalised viability (MDA-MB-453 [30]) | normalised viability (SK-BR-3 [31]) | normalised viability (MDA-MB-436 [32]) | normalised viability (CAL-148 [33]) | normalised viability (CAL-120 [34]) | normalised viability (HCC1143 [35]) | normalised viability (CAL-51 [36])
1 | COc1cc2c(Oc3ccc(NC(=O)C4(C(=O)Nc5ccc(F)cc5)CC4)cc3F)ccnc2cc1OCCCN1CCOCC1 [Foretinib] (0.1 nM) | 105% | 105% | 89.5% | 100% | 104% | 93.4% | 99.7% | 108% | 99.2% | 102% | 102% | 109% | 107% | 107% | 97.2% | 109% | 100% | 99% | 74.1% | 75.8% | 99.9% | 110% | 90.2% | 94.6% | 98.9% | 102% | 101% | 101% | 100% | 97% | 95% | 89% | 95.8% | 107% | 92.1% | 100% | 91.8%
2 | NC(=O)NO [Hydroxyurea] (10 nM) | 97.3% | 98.6% | 101% | 98.5% | 108% | 101% | 98.3% | 103% | 91.6% | 106% | 105% | 110% | 113% | 90.1% | 110% | 101% | 96.7% | 104% | 74.9% | 116% | 97.2% | 107% | 109% | 99.2% | 113% | 101% | 112% | 95.8% | 123% | 104% | 105% | 52% | 109% | 107% | 98.9% | 102% | 100%
